Measured values: ChEMBL document CHEMBL3045266, “Lytic activity of l-menthol derivatives against the snow blight disease fungus, Micronectriella nivalis” (2003)
The source made the active and inactive calls. The calls are words filed in the database; no cut-off is given here.

Columns and labels:
[1] = system: Monographella nivalis var. nivalis; assay: Lytic activity against Monographella nivalis var. nivalis MAFF 305031 assessed as hyphal lysis at 0.2 mg/ml after 48 hr by cotton blue staining; type: functional
[2] = system: Monographella nivalis var. nivalis; assay: Lytic activity against Monographella nivalis var. nivalis MAFF 305031 assessed as hyphal lysis at 0.025 to 0.2 mg/ml after 48 hr by cotton blue staining; type: functional, organism-based
[3] = system: Monographella nivalis var. nivalis; assay: Lytic activity against Monographella nivalis var. nivalis MAFF 305031 assessed as hyphal lysis after 48 hr by cotton blue staining; type: functional, organism-based
[4] = system: Monographella nivalis var. nivalis; assay: Lytic activity against Monographella nivalis var. nivalis MAFF 305031 assessed as hyphal lysis at 0.05 mg/ml after 48 hr by cotton blue staining; type: functional

Structure (SMILES) | Activity [1] | Activity [2] | Activity [3] | Activity [4]
CC(=O)O[C@@H]1C[C@@](C)(O)CC[C@H]1C(C)C [(-)-(1S,3R,4S)-1-HYDROXYMENTHYL 3-MONOACETATE] | 66% | Active |  | 
C[C@H]1C[C@@H](O)[C@H](C(C)(C)O)C[C@@H]1O | 81.9% |  | Dose-dependent effect | 68.1%
CC(=O)O[C@@H]1C[C@H](C)CC[C@H]1C(C)C | 51.2% | Active |  | 
CC(=O)O[C@H]1C[C@@H](C(C)(C)O)[C@H](OC(C)=O)C[C@@H]1C | 95.2% | Active |  | 
CC(C)[C@@H]1CC[C@](C)(O)C[C@H]1O [(-)-(1S,3R,4S)-1-HYDROXYMENTHOL] | 63.9% |  | Dose-dependent effect | 
CC(=O)O[C@H]1C[C@@H](C(C)C)[C@H](OC(C)=O)C[C@@H]1C | 91.5% | Active |  | 
CC(C)[C@@H]1C[C@H](O)[C@@H](C)C[C@H]1O [(-)-(1S,3R,4S,6S)-6-HYDROXYMENTHOL] | 85% |  | Dose-dependent effect | 57.1%
CC(C)[C@@H]1CC[C@@H](C)C[C@H]1O [LEVOMENTHOL] | 45.7% |  |  | 
